Experimental data from BigSolDB 2.1.

Nc1cc(-c2ccncc2)c[nH]c1=O
solubility (mole fraction)
Settings	278.15 K	283.15 K	288.15 K	293.15 K	298.15 K	303.15 K	308.15 K	313.15 K	318.15 K	323.15 K
in DMF	7.24e-05	8.63e-05	0.000102	0.000118	0.000135	0.000154	0.000177	0.000203	0.000229	0.00026
in ethanol	2.65e-05	3.18e-05	3.71e-05	4.41e-05	5.07e-05	5.84e-05	6.7e-05	7.54e-05	8.47e-05	9.67e-05
in ethylene glycol	1.95e-05	2.33e-05	2.74e-05	3.26e-05	3.83e-05	4.35e-05	4.95e-05	5.62e-05	6.36e-05	7.18e-05
in methanol	5.18e-05	6.11e-05	7.22e-05	8.44e-05	9.72e-05	0.000111	0.000126	0.000141	0.00016	0.00018
in water	6.85e-07	8.07e-07	9.66e-07	1.13e-06	1.33e-06	1.53e-06	1.77e-06	2.02e-06	2.3e-06	2.63e-06
